# Test results from ChEMBL document CHEMBL1201862, “PubChem BioAssay data set” (2004).
#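 1) Cells in 96-well plates. 2) Compound, 48 h, 5 concentrations. 3) Linear interpolation between surrounding doses. 4) Unreached endpoint = highest concentration. GI50 = concentration required for 50% inhibition of growth.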 Active and inactive are the calls of the source. No stated cut-off is given here; in the data, active = GI50 up to about 1.1 µM and inactive = higher.
# Legend:
# Assay in all cases: NCI anticancer screen, dose series, 48 h
# MDA-MB-435 = tested on: MDA-MB-435
# MCF7 = tested on: MCF7
# Hs-578T = tested on: Hs-578T
# MDA-MB-231 = tested on: MDA-MB-231
# SN12C = tested on: SN12C
# MDA-N = tested on: MDA-N
# U-251 = tested on: U-251
# HOP-62 = tested on: HOP-62
# K562 = tested on: K562
# A549 = tested on: A549
# DU-145 = tested on: DU-145
# SW-620 = tested on: SW-620
# SK-MEL-2 = tested on: SK-MEL-2
# HT-29 = tested on: HT-29
# SK-MEL-28 = tested on: SK-MEL-28
# SF-295 = tested on: SF-295
# SNB-19 = tested on: SNB-19
# A498 = tested on: A498
# HCT-15 = tested on: HCT-15
# SF-268 = tested on: SF-268
SMILES,GI50 (MDA-MB-435),GI50 (MCF7),GI50 (Hs-578T),GI50 (MDA-MB-231),GI50 (SN12C),GI50 (MDA-N),GI50 (U-251),GI50 (HOP-62),GI50 (K562),GI50 (A549),GI50 (DU-145),GI50 (SW-620),GI50 (SK-MEL-2),GI50 (HT-29),GI50 (SK-MEL-28),GI50 (SF-295),GI50 (SNB-19),GI50 (A498),GI50 (HCT-15) [µM],GI50 (SF-268)
CCOC(=S)SC/C(=N\OC(C)(C)OC)c1ccccc1,25 µM (inactive),29.2 µM (inactive),46.5 µM (inactive),> 100 µM (inactive),89.7 µM (inactive),36.1 µM (inactive),41.9 µM (inactive),42.1 µM (inactive),20.6 µM (inactive),44.7 µM (inactive),> 100 µM (inactive),33.2 µM (inactive),20.7 µM (inactive),23 µM (inactive),47.3 µM (inactive),32.3 µM (inactive),> 100 µM (inactive),72.6 µM (inactive),32.5,56.9 µM (inactive)
COC(=O)C1CCC(=O)N1CN(C(C)=O)c1cccc(O)c1 (centres undefined),> 100 µM (inactive),> 100 µM (inactive),> 100 µM (inactive),> 100 µM (inactive),> 100 µM (inactive),> 100 µM (inactive),> 100 µM (inactive),> 100 µM (inactive),> 100 µM (inactive),> 100 µM (inactive),> 100 µM (inactive),> 100 µM (inactive),> 100 µM (inactive),> 100 µM (inactive),> 100 µM (inactive),> 100 µM (inactive),> 100 µM (inactive),> 100 µM (inactive),> 100,> 100 µM (inactive)
Oc1nc(S)nc2c1C(c1ccc(Cl)cc1)c1c(O)nc(S)nc1O2,> 100 µM (inactive),> 100 µM (inactive),> 100 µM (inactive),> 100 µM (inactive),> 100 µM (inactive),> 100 µM (inactive),> 100 µM (inactive),> 100 µM (inactive),> 100 µM (inactive),> 100 µM (inactive),> 100 µM (inactive),> 100 µM (inactive),> 100 µM (inactive),> 100 µM (inactive),> 100 µM (inactive),> 100 µM (inactive),> 100 µM (inactive),> 100 µM (inactive),> 100,25.7 µM (inactive)
Oc1c(Cl)cc(CN(Cc2cc(Cl)c(O)c(Cl)c2)C2CCCCC2)cc1Cl,> 100 µM (inactive),> 100 µM (inactive),> 100 µM (inactive),> 100 µM (inactive),> 100 µM (inactive),> 100 µM (inactive),> 100 µM (inactive),> 100 µM (inactive),> 100 µM (inactive),> 100 µM (inactive),> 100 µM (inactive),> 100 µM (inactive),> 100 µM (inactive),> 100 µM (inactive),> 100 µM (inactive),> 100 µM (inactive),> 100 µM (inactive),> 100 µM (inactive),> 100,> 100 µM (inactive)
CC1=CC(=O)c2cccc(O)c2C1=O,1.78 µM (inactive),1.99 µM (inactive),3.07 µM (inactive),1.76 µM (inactive),2.32 µM (inactive),1.9 µM (inactive),16.5 µM (inactive),17.1 µM (inactive),3.02 µM (inactive),14.9 µM (inactive),8.05 µM (inactive),1.99 µM (inactive),2.09 µM (inactive),4.27 µM (inactive),4.25 µM (inactive),14.3 µM (inactive),8.07 µM (inactive),18.5 µM (inactive),1.56,6.76 µM (inactive)
N#Cc1[nH]c(=O)n(-c2cccc3ccccc23)c1N,> 10 µM (inactive),> 10 µM (inactive),> 10 µM (inactive),> 10 µM (inactive),> 10 µM (inactive),> 10 µM (inactive),> 10 µM (inactive),> 10 µM (inactive),> 10 µM (inactive),> 10 µM (inactive),> 10 µM (inactive),> 10 µM (inactive),> 10 µM (inactive),> 10 µM (inactive),> 10 µM (inactive),> 10 µM (inactive),> 10 µM (inactive),> 10 µM (inactive),> 10,> 10 µM (inactive)
O=c1c2c3c(sc2nc2n1N=CN(c1ccc(F)cc1)C2)CCCC3,> 100 µM (inactive),> 100 µM (inactive),> 100 µM (inactive),> 100 µM (inactive),> 100 µM (inactive),> 100 µM (inactive),> 100 µM (inactive),> 100 µM (inactive),> 100 µM (inactive),> 100 µM (inactive),> 100 µM (inactive),> 100 µM (inactive),> 100 µM (inactive),> 100 µM (inactive),> 100 µM (inactive),> 100 µM (inactive),> 100 µM (inactive),> 100 µM (inactive),> 100,> 100 µM (inactive)
O=c1c2cc([N+](=O)[O-])ccc2n(Cc2ccccc2)n1Cc1ccccc1,10.8 µM (inactive),14 µM (inactive),16.3 µM (inactive),12.6 µM (inactive),20.5 µM (inactive),12.2 µM (inactive),15.1 µM (inactive),> 31.6 µM (inactive),6.38 µM (inactive),18.6 µM (inactive),17.3 µM (inactive),17.4 µM (inactive),12.6 µM (inactive),15.9 µM (inactive),18.5 µM (inactive),15.1 µM (inactive),29.6 µM (inactive),15.9 µM (inactive),20.1,24.4 µM (inactive)
CC1(C)C2CC1C(/C=N\OCC(=O)O)=CC2=O (centres undefined),> 100 µM (inactive),> 100 µM (inactive),> 100 µM (inactive),> 100 µM (inactive),> 100 µM (inactive),> 100 µM (inactive),> 100 µM (inactive),> 100 µM (inactive),> 100 µM (inactive),> 100 µM (inactive),> 100 µM (inactive),> 100 µM (inactive),> 100 µM (inactive),> 100 µM (inactive),> 100 µM (inactive),> 100 µM (inactive),> 100 µM (inactive),> 100 µM (inactive),> 100,> 100 µM (inactive)
Cc1ccc(-c2n[nH]c(=O)n2N)cc1,> 100 µM (inactive),> 100 µM (inactive),> 100 µM (inactive),> 100 µM (inactive),> 100 µM (inactive),> 100 µM (inactive),> 100 µM (inactive),> 100 µM (inactive),> 100 µM (inactive),> 100 µM (inactive),> 100 µM (inactive),> 100 µM (inactive),> 100 µM (inactive),> 100 µM (inactive),> 100 µM (inactive),> 100 µM (inactive),> 100 µM (inactive),> 100 µM (inactive),> 100,> 100 µM (inactive)
CCOC(=O)CC[C@H](N)C(=O)N[C@@H](Cc1ccc(N(CCCl)CCCl)cc1)C(=O)OCC,1.39 µM (inactive),0.483 µM (active),2.16 µM (inactive),1.94 µM (inactive),2.15 µM (inactive),0.944 µM (active),1.94 µM (inactive),2.37 µM (inactive),0.895 µM (active),2.73 µM (inactive),0.324 µM (active),0.977 µM (active),2.69 µM (inactive),1.1 µM (active),0.869 µM (active),3.6 µM (inactive),4.69 µM (inactive),17.7 µM (inactive),0.726,0.711 µM (active)
CC1(C)CC23CC(C)(C)c4cccc(c42)OCc2ccc4ccc5ccc(nc5c4n2)COc2cccc1c23,> 50 µM (inactive),> 50 µM (inactive),> 50 µM (inactive),> 50 µM (inactive),> 50 µM (inactive),> 50 µM (inactive),> 50 µM (inactive),> 50 µM (inactive),> 50 µM (inactive),> 50 µM (inactive),> 50 µM (inactive),> 50 µM (inactive),> 50 µM (inactive),> 50 µM (inactive),> 50 µM (inactive),> 50 µM (inactive),> 5 µM (inactive),> 50 µM (inactive),> 50,> 50 µM (inactive)
O=c1[nH]c(N/N=C\C(O)C(O)C(O)C(O)CO)nc2ccccc12 (centres undefined),> 100 µM (inactive),> 100 µM (inactive),> 100 µM (inactive),> 100 µM (inactive),> 100 µM (inactive),> 100 µM (inactive),> 100 µM (inactive),> 100 µM (inactive),> 100 µM (inactive),> 100 µM (inactive),> 100 µM (inactive),> 100 µM (inactive),> 100 µM (inactive),> 100 µM (inactive),> 100 µM (inactive),> 100 µM (inactive),> 100 µM (inactive),> 100 µM (inactive),> 100,> 100 µM (inactive)
O=[N+]([O-])c1ccc(Cl)cc1C1ON=C(c2ccccc2)N1C12CC3CC(CC(C3)C1)C2 (centres undefined),> 100 µM (inactive),> 100 µM (inactive),> 100 µM (inactive),> 100 µM (inactive),> 100 µM (inactive),> 100 µM (inactive),> 100 µM (inactive),> 100 µM (inactive),> 100 µM (inactive),> 100 µM (inactive),> 100 µM (inactive),,> 100 µM (inactive),> 100 µM (inactive),> 100 µM (inactive),> 100 µM (inactive),> 100 µM (inactive),> 100 µM (inactive),> 100,> 100 µM (inactive)
